Results as given in patent US20090036450A1, “PYRAZOLE COMPOUNDS AND USE THEREOF” (JAPAN TOBACCO, INC., priority 2006, published 2009).
Where a name gives a salt, the structure may show the parent alone.

Molecular target: T1, human liver glycogen phosphorylase (Homo sapiens, UniProt P06737)
T1 construct: made in house; host or cells: Sf9 insect cells (suspension of disrupted cells, diluted in BES buffer, not purified)
T1 sequence (P06737 1-847): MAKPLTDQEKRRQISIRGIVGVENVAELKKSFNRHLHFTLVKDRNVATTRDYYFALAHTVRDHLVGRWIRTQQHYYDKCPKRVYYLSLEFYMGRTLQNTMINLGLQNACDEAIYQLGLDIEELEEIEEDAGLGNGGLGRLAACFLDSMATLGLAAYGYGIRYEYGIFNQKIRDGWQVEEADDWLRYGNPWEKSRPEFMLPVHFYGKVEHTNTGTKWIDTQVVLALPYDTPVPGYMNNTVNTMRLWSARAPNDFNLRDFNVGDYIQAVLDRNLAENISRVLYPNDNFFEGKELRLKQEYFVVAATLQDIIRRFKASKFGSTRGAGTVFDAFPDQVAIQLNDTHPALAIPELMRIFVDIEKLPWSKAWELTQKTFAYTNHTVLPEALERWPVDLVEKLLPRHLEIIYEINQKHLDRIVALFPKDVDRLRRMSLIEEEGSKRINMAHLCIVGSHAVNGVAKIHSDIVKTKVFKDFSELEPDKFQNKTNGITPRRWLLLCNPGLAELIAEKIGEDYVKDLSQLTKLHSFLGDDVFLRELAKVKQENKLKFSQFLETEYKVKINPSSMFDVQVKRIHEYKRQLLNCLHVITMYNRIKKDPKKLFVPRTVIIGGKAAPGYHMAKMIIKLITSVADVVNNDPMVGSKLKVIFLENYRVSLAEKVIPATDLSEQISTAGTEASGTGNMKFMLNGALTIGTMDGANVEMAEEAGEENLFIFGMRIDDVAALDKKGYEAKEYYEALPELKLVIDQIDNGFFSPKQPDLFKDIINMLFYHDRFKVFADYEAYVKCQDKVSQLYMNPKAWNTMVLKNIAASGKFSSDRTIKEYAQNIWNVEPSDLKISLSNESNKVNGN
Experiment: Liver glycogen phosphorylase activity, forward reaction system (NADPH detection at 340 nm)
Type: biochemical
Settings: enzyme inhibitory activity against recombinant human liver glycogen phosphorylase (Sf9 cell lysate), room temperature, 75 minutes
In short: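 Recombinant human liver glycogen phosphorylase from Sf9 lysate, run in forward direction with glycogen and phosphate substrate plus glucose, coupled via phosphoglucomutase/G6PDH to NADPH formation. BES buffer pH 6.8, room temperature, 75 min; A340 change minus blank gives activity. IC50 from percent inhibition vs DMSO control.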

O=C(NCc1nnc(-c2cccc(Cl)c2)o1)c1cc(NC(=O)c2cc(F)c(F)cc2Cl)[nH]n1 [Example 1-59, 5-(2-chloro-4,5-difluoro-benzoylamino)-1H-pyrazole-3-carboxylic acid [5-(3-chloro-phenyl)-[1,3,4]oxadiazol-2-ylmethyl]-amide]
IC50: < 100 nM

COc1cccc(-c2nnc(CNC(=O)c3cc(NC(=O)c4cc(F)c(F)cc4Cl)[nH]n3)o2)c1 [Example 1-60, 5-(2-chloro-4,5-difluoro-benzoylamino)-1H-pyrazole-3-carboxylic acid [5-(3-methoxy-phenyl)-[1,3,4]oxadiazol-2-ylmethyl]-amide]
IC50: < 100 nM

COc1ccccc1-c1nnc(CNC(=O)c2cc(NC(=O)c3cc(F)c(F)cc3Cl)[nH]n2)o1 [Example 1-61, 5-(2-chloro-4,5-difluoro-benzoylamino)-1H-pyrazole-3-carboxylic acid [5-(2-methoxy-phenyl)-[1,3,4]oxadiazol-2-ylmethyl]-amide]
IC50: < 100 nM

CCOC(=O)Cc1nnc(CNC(=O)c2cc(NC(=O)c3cc(F)c(F)cc3Cl)[nH]n2)o1 [Example 1-62]
IC50: 100 to 300 nM

Cc1c(CNC(=O)c2cc(NC(=O)c3cc(F)c(F)cc3Cl)[nH]n2)nnn1Cc1ccc(Cl)cc1 [Example 1-63, 5-(2-chloro-4,5-difluoro-benzoylamino)-1H-pyrazole-3-carboxylic acid [1-(4-chloro-benzyl)-5-methyl-1H-[1,2,3]triazol-4-ylmethyl]-amide]
IC50: < 100 nM

Cc1ccc(Cn2nnc(CNC(=O)c3cc(NC(=O)c4cc(F)c(F)cc4Cl)[nH]n3)c2C)cc1 [Example 1-64, 5-(2-chloro-4,5-difluoro-benzoylamino)-1H-pyrazole-3-carboxylic acid [5-methyl-1-(4-methyl-benzyl)-1H-[1,2,3]triazol-4-ylmethyl]-amide]
IC50: < 100 nM

Cc1nc(Cn2nnc(CNC(=O)c3cc(NC(=O)c4cc(F)c(F)cc4Cl)[nH]n3)c2C)cs1 [Example 1-65, 5-(2-chloro-4,5-difluoro-benzoylamino)-1H-pyrazole-3-carboxylic acid [5-methyl-1-(2-methyl-thiazol-4-ylmethyl)-1H-[1,2,3]triazol-4-ylmethyl]-amide]
IC50: < 100 nM

Cc1cccc(-n2nc(C)c(CNC(=O)c3cc(NC(=O)c4cc(F)c(F)cc4Cl)[nH]n3)c2C)c1 [Example 1-66, 5-(2-chloro-4,5-difluoro-benzoylamino)-1H-pyrazole-3-carboxylic acid [3,5-dimethyl-1-(3-methyl-phenyl)-1H-pyrazol-4-ylmethyl]-amide]
IC50: < 100 nM

O=C(NCc1cnn(-c2ccc(F)cc2)c1C1CC1)c1cc(NC(=O)c2cc(F)c(F)cc2Cl)[nH]n1 [Example 1-67, 5-(2-chloro-4,5-difluoro-benzoylamino)-1H-pyrazole-3-carboxylic acid [5-cyclopropyl-1-(4-fluoro-phenyl)-1H-pyrazol-4-ylmethyl]-amide]
IC50: < 100 nM

Cc1ncc(CNC(=O)c2cc(NC(=O)c3cc(F)c(F)cc3Cl)[nH]n2)c(C2CC2)n1 [Example 1-68, 5-(2-chloro-4,5-difluoro-benzoylamino)-1H-pyrazole-3-carboxylic acid (4-cyclopropyl-2-methyl-pyrimidin-5-ylmethyl)-amide]
IC50: < 100 nM

COc1ccc(-c2nnsc2CNC(=O)c2cc(NC(=O)c3cc(F)c(F)cc3Cl)[nH]n2)cc1 [Example 1-69, 5-(2-chloro-4,5-difluoro-benzoylamino)-1H-pyrazole-3-carboxylic acid [4-(4-methoxy-phenyl)-[1,2,3]thiadiazol-5-ylmethyl]-amide]
IC50: < 100 nM

Cc1noc(-c2noc(C)c2CNC(=O)c2cc(NC(=O)c3cc(F)c(F)cc3Cl)[nH]n2)n1 [Example 1-70, 5-(2-chloro-4,5-difluoro-benzoylamino)-1H-pyrazole-3-carboxylic acid [5-methyl-3-(3-methyl-[1,2,4]oxadiazol-5-yl)-isoxazol-4-ylmethyl]-amide]
IC50: < 100 nM

Cc1noc(-c2nc(C)oc2CNC(=O)c2cc(NC(=O)c3cc(F)c(F)cc3Cl)[nH]n2)n1 [Example 1-71, 5-(2-chloro-4,5-difluoro-benzoylamino)-1H-pyrazole-3-carboxylic acid [2-methyl-4-(3-methyl-[1,2,4]oxadiazol-5-yl)-oxazol-5-ylmethyl]-amide]
IC50: < 100 nM

O=C(NCc1nnc(-c2cccc(F)c2)o1)c1cc(NC(=O)c2cc(F)c(F)cc2Cl)[nH]n1 [Example 1-72, 5-(2-chloro-4,5-difluoro-benzoylamino)-1H-pyrazole-3-carboxylic acid [5-(3-fluoro-phenyl)-[1,3,4]oxadiazol-2-ylmethyl]-amide]
IC50: < 100 nM

O=C(NCc1nnc(Cc2ccccc2)o1)c1cc(NC(=O)c2cc(F)c(F)cc2Cl)[nH]n1 [Example 1-74, 5-(2-chloro-4,5-difluoro-benzoylamino)-1H-pyrazole-3-carboxylic acid (5-benzyl-[1,3,4]oxadiazol-2-ylmethyl)-amide]
IC50: < 100 nM

Cn1cccc1-c1nnc(CNC(=O)c2cc(NC(=O)c3cc(F)c(F)cc3Cl)[nH]n2)o1 [Example 1-75, 5-(2-chloro-4,5-difluoro-benzoylamino)-1H-pyrazole-3-carboxylic acid [5-(1-methyl-1H-pyrrol-2-yl)-[1,3,4]oxadiazol-2-ylmethyl]-amide]
IC50: < 100 nM

Cc1cc(-c2nnc(CNC(=O)c3cc(NC(=O)c4cc(F)c(F)cc4Cl)[nH]n3)o2)[nH]n1 [Example 1-76, 5-(2-chloro-4,5-difluoro-benzoylamino)-1H-pyrazole-3-carboxylic acid [5-(5-methyl-2H-pyrazol-3-yl)-[1,3,4]oxadiazol-2-ylmethyl]-amide]
IC50: < 100 nM

O=C(NCc1nnc(-c2cc3ccccc3s2)o1)c1cc(NC(=O)c2cc(F)c(F)cc2Cl)[nH]n1 [Example 1-77, 5-(2-chloro-4,5-difluoro-benzoylamino)-1H-pyrazole-3-carboxylic acid (5-benzo[b]thiophen-2-yl-[1,3,4]oxadiazol-2-ylmethyl)-amide]
IC50: 100 to 300 nM

Cc1nnsc1-c1nnc(CNC(=O)c2cc(NC(=O)c3cc(F)c(F)cc3Cl)[nH]n2)o1 [Example 1-78, 5-(2-chloro-4,5-difluoro-benzoylamino)-1H-pyrazole-3-carboxylic acid [5-(4-methyl-[1,2,3]thiadiazol-5-yl)-[1,3,4]oxadiazol-2-ylmethyl]-amide]
IC50: < 100 nM

Cc1ncc(CNC(=O)c2cc(NC(=O)c3cc(F)c(F)cc3Cl)[nH]n2)c(-c2cccc(F)c2)n1 [Example 1-79, 5-(2-chloro-4,5-difluoro-benzoylamino)-1H-pyrazole-3-carboxylic acid [4-(3-fluoro-phenyl)-2-methyl-pyrimidin-5-ylmethyl]-amide]
IC50: < 100 nM

Cc1nc(C2CC2)ncc1CNC(=O)c1cc(NC(=O)c2cc(F)c(F)cc2Cl)[nH]n1 [Example 1-80, 5-(2-chloro-4,5-difluoro-benzoylamino)-1H-pyrazole-3-carboxylic acid (2-cyclopropyl-4-methyl-pyrimidin-5-ylmethyl)-amide]
IC50: < 100 nM

O=C(NCc1cncnc1C1CC1)c1cc(NC(=O)c2cc(F)c(F)cc2Cl)[nH]n1 [Example 1-81, 5-(2-chloro-4,5-difluoro-benzoylamino)-1H-pyrazole-3-carboxylic acid (4-cyclopropyl-pyrimidin-5-ylmethyl)-amide]
IC50: < 100 nM

O=C(NCc1cnc(C2CC2)nc1C1CC1)c1cc(NC(=O)c2cc(F)c(F)cc2Cl)[nH]n1 [Example 1-82, 5-[2-chloro-4,5-difluoro-benzoylamino)-1H-pyrazole-3-carboxylic acid (2,4-dicyclopropyl-pyrimidin-5-ylmethyl)-amide hydrochloride]
IC50: < 100 nM

Cc1ncc(CNC(=O)c2cc(NC(=O)c3cc(F)c(F)cc3Cl)[nH]n2)c(-c2oc(C)nc2C)n1 [Example 1-83, 5-(2-chloro-4,5-difluoro-benzoylamino)-1H-pyrazole-3-carboxylic acid [4-(2,4-dimethyl-oxazol-5-yl)-2-methyl-pyrimidin-5-ylmethyl]-amide]
IC50: < 100 nM

Cc1cc(-c2nnsc2CNC(=O)c2cc(NC(=O)c3cc(F)c(F)cc3Cl)[nH]n2)c(C)o1 [Example 1-84, 5-(2-chloro-4,5-difluoro-benzoylamino)-1H-pyrazole-3-carboxylic acid [4-(2,5-dimethyl-furan-3-yl)-[1,2,3]thiadiazol-5-ylmethyl]-amide]
IC50: < 100 nM

O=C(NCc1nnc(-c2cccc(Cl)c2)s1)c1cc(NC(=O)c2cc(F)c(F)cc2Cl)[nH]n1 [Example 1-85]
IC50: < 100 nM
